Measurements published in US20220378043A1, “BIOFILM TREATMENT AGENT AND BIOFILM TREATMENT METHOD” (SEIKO PMC CORPORATION, priority 2019, published 2022).
Converted amounts (≈) assume the structure as drawn. Where two headings read alike, the source gives them in different places. Residues, ends and D or L forms follow the SMILES beside them.

How the values were obtained:
[1] = tested on: Pseudomonas aeruginosa (deposit number: NBRC106052 strain) biofilm; experiment: Evaluation of biofilm-removing effect (crystal violet staining of pre-formed biofilm); assay type: cell-based; conditions: Table 4: anthranilic acid analog and/or biosurfactant or synthetic surfactant, each at Table 2 concentration, pH 7.0, 3.5 hours contact
Text: In the present invention, the biofilm-removing effect is an action of removing biofilms formed by bacteria. Examples of methods for evaluating an effect of removing substances to be evaluated include a method for comparing the amount of biofilm formed after bringing the substance to be evaluated into contact with a biofilm formed through culturing bacteria for a certain period of time with the amount of biofilm (control) formed after the elapse of a certain period of time without the biofilm being brought into contact with the substance to be evaluated. In this case, when the amount of biofilm formed is smaller than that of the control, it can be determined that the substance to be evaluated has a biofilm-removing effect.
(i) A triptic soy broth (TBS, Bacto: manufactured by Difco Laboratories) medium having a final concentration of glucose of 1% is used for Pseudomonas aeruginosa (deposit number: NBRC106052 strain) which is a representative strain of biofilm-forming bacteria to prepare a preculture solution under the condition of 120 rpm.
(ii) The preculture solution of which the turbidity (OD) is adjusted to 0.1 is diluted with a TSB medium so that the final concentration is 0.000005% (v/v), and 2 mL of the diluent is dispensed into a 12-well plate. Here, the following OD (turbidity) is a value which is measured with a spectrophotometer (iMark Microplate Reader: manufactured by Bio-Rad Laboratories, Inc.) at a wavelength of 630 nm in which distilled water is used as a blank.
(iii) Culture is performed under the conditions of 37° C. and 130 rpm for 17 hours to form a biofilm.
(iv) The culture solution in each well is removed and each well is rinsed twice with distilled water.
(v) A substance to be evaluated is added to a medium at an appropriate concentration less than the MIC of the target substance, and the pH of the medium is adjusted to 7.0 with hydrochloric acid or sodium hydroxide. 2 mL of a sterile medium (pH=7.0) is added to each well to be used as a negative control.
(vi) Each well is shaken at the same temperature as that of the preculture for 3.5 hours at 130 rpm, the biofilm is brought into contact with the medium containing the substance to be evaluated, and then, the medium in each well is removed, and each well is rinsed twice with distilled water.
(vii) 2 mL of an aqueous crystal violet solution (0.4 w/v %, 20 w/v % methanol) is added to the biofilm adhering in each well, allowed to stand for 2 minutes, and allowed to stain, and then, the stained biofilm is rinsed three times with distilled water, and the aqueous crystal violet solution which has not been bound to the biofilm is removed.
(viii) 2 mL of ethanol is added to each well and allowed to stand for 1 hour to elute crystal violet from the stained biofilm, and the absorbance is measured. Here, the following absorbance is a value which is measured with a spectrophotometer (iMark Microplate Reader: manufactured by Bio-Rad Laboratories, Inc.) at a wavelength of 595 nm in which distilled water is used as a blank.
(ix) Regarding the absorbance of the negative control and each substance to be evaluated, absorbances measured for 4 wells are taken as an average value, and the removal rate of each biofilm is calculated from the following calculation equation.
Biofilm removal rate (%)={1-(absorbance of substance to be evaluated/absorbance of negative control)}×100
The biofilm-removing effect and the biofilm formation-inhibiting effect of each of the substances to be evaluated shown in Table 1 were confirmed according to the evaluation methods specified in the present invention using each biofilm treatment agent containing each substance to be evaluated as a biofilm treatment agent component. In addition, evaluation results of the biofilm-removing effect and the biofilm formation-inhibiting effect of each aromatic monohydric alcohol alone are shown in […]

[2] = tested on: Pseudomonas aeruginosa (deposit number: NBRC106052 strain); experiment: Minimum inhibitory concentration (MIC) test; assay type: cell-based
Experimental: A compound (hereinafter, sometimes referred to as a substance to be evaluated) that is a component of a biofilm treatment agent is diluted stepwise with a bouillon medium for testing susceptibility to prepare a total amount of 10 mL of dilution series (with the proviso of being 1.1 times the target concentration). 20 μL of a bacterial suspension which has been prepared such that there is 10^8 cfu/mL of Pseudomonas aeruginosa (deposit number: NBRC106052 strain) which is a representative strain of biofilm-forming bacteria as a test bacterial strain is added thereto and subjected to shaking culture (2000 rpm) with a 96-well microplate mixer at 37° C. for 24 hours. The lowest concentration in the dilution series which is not visually turbid is regarded as the MIC.
Pseudomonad (gram-negative bacterium) known as a model bacterium forming a biofilm was used as a test bacterium to MIC's of compounds (hereinafter, substances to be evaluated) that are components of a biofilm treatment agent.
(1) Test Bacterium Pseudomonas aeruginosa (Deposit Number: NBRC106052 Strain)
Each substance to be evaluated was diluted stepwise with a bouillon medium for testing susceptibility to prepare a total amount of 10 mL of dilution series (with the proviso of being 1.1 times the target concentration). 20 μL of a bacterial suspension which had been prepared such that there was 10^8 cfu/mL of a test bacterial strain was added thereto and subjected to shaking culture (2000 rpm) with a 96-well microplate mixer at 37° C. for 24 hours. The lowest concentration in the dilution series which was not visually turbid was regarded as the MIC.

[3] = Pseudomonas aeruginosa, NBRC106052, 24 h
[4] = Pseudomonas aeruginosa, NBRC106052, bouillon medium, 37° C., 24 hours, lowest concentration not visually turbid, read-out: MIC
[5] = bouillon medium, 37° C., 24 hours, lowest concentration not visually turbid

Molecule	Removal results (removal rate %) [1]	MIC [2, 3]	MIC [2, 4]	other results
Nc1ccccc1C(=O)O [Comparative Example 7, Anthranilic acid]	20%	10000 µg/mL (≈ 72.9 mM)		
CC(C)CCCCCCCCC[C@@H]1CC(=O)N[C@@H](CCC(=O)O)C(=O)N[C@@H](CC(C)C)C(=O)N[C@H](CC(C)C)C(=O)N[C@@H](C(C)C)C(=O)N[C@@H](CC(=O)O)C(=O)N[C@H](CC(C)C)C(=O)N[C@@H](CC(C)C)C(=O)O1 [Comparative Example 9, Surfactin] (HELM PEPTIDE1{E.L.[dL].V.D.[dL].L}|CHEM1{[CC(C)CCCCCCCCC[C@H](CC(=O)[*:1])O[*:2]]}$PEPTIDE1,CHEM1,1:R1-1:R1|PEPTIDE1,CHEM1,7:R2-1:R2$$$V2.0)	24%		10000 µg/mL (≈ 9.65 mM)	
OCCOc1ccccc1 [Example 4, 2-Phenoxyethanol]		2500 µg/mL (≈ 18.1 mM)		
OCC(O)COc1ccccc1 (stereo not drawn) [compound 3, 3-Phenoxy-1,2-propanediol]		> 5000 µg/mL		
CCCCCCCCCCCCOS(=O)(=O)[O-].[Na+] [SDS, sodium dodecyl sulfate]			2000 µg/mL	
CC(O)c1ccccc1 (stereo not drawn) [Example 2, 1-Phenylethanol]		5000 µg/mL (≈ 40.9 mM)		
OCCCOc1ccccc1 [Example 5, 3-Phenoxy-1-propanol]		2500 µg/mL (≈ 16.4 mM)		
OCCc1ccccc1 [Example 3, 2-Phenylethanol]			5000 µg/mL (≈ 40.9 mM)	
polyoxyethylene lauryl ether [POELE]				MIC [2, 5]: >2,000 ppm
NC(=O)c1ccccc1N [Comparative Example 5, Anthranylamide]	25%			MIC [2, 5]: 5,000 ppm
OCC(CO)c1ccccc1 [compound 2, 2-Phenyl-1,3-propanediol]			> 5000 µg/mL	
OCc1ccccc1 [Example 1, 1-Phenylmethanol]			2500 µg/mL (≈ 23.1 mM)	
Sophorolipid [Comparative Example 10]	36%			MIC [2, 5]: >10,000 ppm
CCCCCO [Comparative Example 1, 1-Pentanol]			> 5000 µg/mL	
N#CC(Br)(Br)C(N)=O [compound 4, 2,2-dibromo-3-nitrilopropionamide]			19.5 µg/mL (≈ 0.0806 mM)	
COC(=O)c1ccccc1N [Comparative Example 6, Methyl anthranilate]	33%	1250 µg/mL (≈ 8.27 mM)		
OCC=Cc1ccccc1 [Example 6, Cinnamyl alcohol]			2500 µg/mL (≈ 18.6 mM)	
Rhamnolipid [Comparative Example 8]	24%			MIC [2, 5]: >10,000 ppm
